The values below are quoted from earlier work in US20100292199A1 (priority 2007, published 2010).

As for `C[C@]12CC[C@H]3[C@@H](CCC4=CC(=O)CC[C@@]43C)[C@@H]1CC[C@@H]2O` [Testosterone], the “solubility in ethyl alcohol” value (ethyl alcohol) is “soluble in ethyl alcohol”. The solubility in water entry (water) was “insoluble in water”.
